Format in all cases: cell-based
Series [1] deals with Human Melanoma cancer cell, Malme-3M. Put plainly: Relative cell viability, Malme-3M (CCK-8). Conditions: 48 hours. The protocol:
Human-derived breast cancer cell line MCF-7, human-derived lung cancer cell line A549, human-derived colorectal cancer cell line HCT-116, human pancreatic cancer cell line AsPC-1, glioblastoma cell line A172, and melanoma cell line Malme-3M were obtained from the Korean Cell Bank. gastric cancer cell line SNU-719, and bladder cancer cell line T24 were cultured in RPMI-1640 medium containing 10% FBS.
Following stabilization, the cells were harvested using Trypsin-EDTA treatment, centrifuged at 1,200 rpm for 3 minutes, the supernatant was removed, and the cells were resuspended in the same medium. They were then seeded into a 96-well plate (Costar 96-well cell culture plate, Corning) at 100 μL per well, and the conditions were adjusted as indicated in Table 5.
The cells were cultured in a 5% CO2 incubator at 37° C. for 24 hours, and after stabilization of the cells, each plate was washed with 200 μL of PBS per well and treated with 50 μL of culture medium per well.
(§1) After that, 10 μL of CCK-8 was added to each well, and the plate was incubated again at 37° C. in a 5% CO2 incubator for 2 hours.
(§2) In other words, when the survival rate of untreated cells (DMSO) is set at 100%, the relative cell survival rate in each group treated with the drug at different concentrations is indicated.

Series [2] has as its system Human multiple myeloma, KMS34. Kind of series: Relative cell viability, KMS34 (CCK-8). The settings on record: concentration 1 μM, relative to untreated cells. As for the experimental part: as §1, §2
Series [3] has as its system human lung fibroblasts MRC-5. Kind of series: TGF-β induced Collagen I expression in MRC-5 cells (Western blot). The settings on record: MRC-5, TGF-β (5 ng/ml), 0.5 μM and 1 μM, 24 hours. As for the experimental part: To confirm that the compound of the present invention directly acts on fibrosis-related mechanisms, in vitro experiments were performed using human lung fibroblasts MRC-5 cell lines (Korea Cell Bank).
First, MRC-5 cells were seeded at 5×10^3 cells per well in a 6-well plate and stabilized for 24 hours.
Subsequently, experimental groups were established, including a control group, a group treated with TGF-β (5 ng/ml) alone, and groups treated with TGF-β and the compound GO88 from the present invention at concentrations of 0.5 μM and 1 μM, respectively.
After treating each group with the drugs for 24 hours, the cell medium was removed, and the cells were washed twice with cold PBS. Then, RIPA lysis buffer containing phosphatase inhibitor and protease inhibitor was added to each group to extract proteins.
The extracted proteins were incubated at 4° C. for 30 minutes, then centrifuged at 13,000 rpm for 15 minutes, and the supernatant was collected. The total protein concentration was measured using the BCA protein quantification method.
Subsequently, the proteins were separated by SDS-PAGE, transferred to a PVDF membrane, and Western blot analysis was performed.
The expression levels of Collagen I, a marker related to pulmonary fibrosis, were confirmed, with GAPDH used as an internal control.
For orientation: In western blotting, separated proteins are transferred to a membrane and probed.

Regarding “12-[4-(2,2-dimethylmorpholin-4-yl)]dodecyl-N-(6-aminopurine-2-yl) carboxamide [Compound 11]”, the “Relative cell viability (%)” value came to 44.06% in series [1] (1 μM); 37.40% in series [1] (10 μM); 36.80% in series [1] (30 μM); 38.87% in series [1] (50 μM); 26.19% in series [2].

Take `Nc1ncccc1C(=O)NCCCCCCCCCCCCN1CCNCC1` [Compound 14, 2-Amino-N-(12-(piperazin-1-yl)dodecyl)nicotinamide]: the “protein expression of Collagen I” value in series [3] is on record as “inhibited in a concentration-dependent manner”.

Values taken from US20260183302A1, “PDK1 REGULATORY COMPOUND AND COMPOSITION CONTAINING THE SAME” (PROVIBIO CO., LTD., priority 2024, published 2026).
